Drawing on patent US11731943B2, “Therapeutic compounds, compositions and methods of use thereof” (priority 2016, dated 2023), this text covers Ki and IC50 for 18 compounds.

Like-named read-outs stand apart in the source and are kept apart here.

The target of assay [1] is isolated recombinant JAK1 kinase domain (Homo sapiens (Human), UniProt P23458). In words: JAK1 enzyme assay (Caliper LabChip, Ki). It counts as biochemical. In outline: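 Ki derived via Morrison tight-binding model, ATP-competitive correction applied. Read-out: product/total ratio of a 5-carboxyfluorescein-tagged JAK3 peptide separated on Caliper LabChip after phosphorylation by isolated human JAK1 kinase domain (22 °C, 30 min; EDTA quench, 50 mM final).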
Chain of isolated recombinant JAK1 kinase domain (P23458 875-1153): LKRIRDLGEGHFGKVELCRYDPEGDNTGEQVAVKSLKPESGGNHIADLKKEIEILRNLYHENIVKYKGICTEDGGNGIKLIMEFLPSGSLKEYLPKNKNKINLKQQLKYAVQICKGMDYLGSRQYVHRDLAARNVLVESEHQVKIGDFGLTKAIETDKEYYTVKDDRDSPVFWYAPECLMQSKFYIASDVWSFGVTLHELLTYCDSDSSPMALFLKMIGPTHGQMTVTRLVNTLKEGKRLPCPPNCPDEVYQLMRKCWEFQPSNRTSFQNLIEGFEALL

Assay [2] deals with isolated recombinant JAK2 kinase domain (Homo sapiens (Human), UniProt O60674). Description: JAK2 enzyme assay (Caliper LabChip, Ki). It counts as biochemical. In outline: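 Caliper LabChip readout of phosphorylated product as a fraction of total substrate, a fluorescently N-terminally labelled JAK3-derived peptide. Isolated human JAK kinase domains were incubated 30 min at 22 °C before EDTA quench (50 mM final).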
Chain of isolated recombinant JAK2 kinase domain (O60674 849-1124): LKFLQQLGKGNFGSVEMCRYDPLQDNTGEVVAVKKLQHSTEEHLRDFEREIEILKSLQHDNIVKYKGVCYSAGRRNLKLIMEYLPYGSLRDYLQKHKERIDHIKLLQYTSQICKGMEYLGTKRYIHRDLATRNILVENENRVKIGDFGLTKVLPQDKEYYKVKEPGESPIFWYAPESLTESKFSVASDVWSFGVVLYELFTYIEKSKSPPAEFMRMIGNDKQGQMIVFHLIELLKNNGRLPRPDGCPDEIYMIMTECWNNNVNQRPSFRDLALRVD

In assay [3] the test system is JAK1-dependent STAT6 phosphorylation downstream of IL-13 stimulation in BEAS-2B human bronchial epithelial cells. Description: JAK1 pathway assay in BEAS-2B cells (IL-13-pSTAT6, MSD). It is filed as cell-based. The method, then: JAK1 Pathway Assay in Cell Lines was carried out as follows:
Inhibitor potency (EC50) was determined in cell-based assays designed to measure JAK1 dependent STAT phosphorylation.
In one assay approach, TF-1 human erythroleukemia cells obtained from the American Type Culture Collection (ATCC; Manassas, Va.) were used to measure JAK1-dependent STAT6 phosphorylation downstream of IL-13 stimulation. Prior to use in the assays, TF-1 cells were starved of GM-CSF overnight in OptiMEM medium (Life Technologies, Grand Island, N.Y.) supplemented with 0.5% charcoal/dextran stripped fetal bovine serum (FBS), 0.1 mM non-essential amino acids (NEAA), and 1 mM sodium pyruvate. The assays were run in 384-well plates in serum-free OptiMEM medium using 300,000 cells per well. In a second assay approach, BEAS-2B human bronchial epithelial cells obtained from ATCC were plated at 100,000 cells per well of a 96-well plate one day prior to the experiment. The BEAS-2B assay was run in complete growth medium (bronchial epithelial basal medium plus bulletkit; Lonza; Basel, Switzerland).
Test compounds were serially diluted 1:2 in DMSO and then diluted 1:50 in medium just before use. Diluted compounds were added to the cells, for a final DMSO concentration of 0.2%, and incubated for 30 min (for the TF-1 assay) or 1 hr (for the BEAS-2B assay) at 37° C. Then, cells were stimulated with human recombinant cytokine at their respective EC90 concentrations, as previously determined for each individual lot. Cells were stimulated with IL-13 (R&D Systems, Minneapolis, Minn.) for 15 min at 37° C. The TF-1 cell reactions were stopped by the direct addition of 10× lysis buffer (Cell Signaling Technologies, Danvers, Mass.), whereas the BEAS-2B cell incubations were halted by the removal of medium and addition of 1× lysis buffer. The resultant samples were frozen in the plates at −80° C. Compound mediated inhibition of STATE phosphorylation was measured in the cell lysates using MesoScale Discovery (MSD) technology (Gaithersburg, Md.).

Setting [4] is: Homo sapiens, BEAS-2B, BEAS-2B cells, IL-13 stimulation, read-out: IL-13 p-STAT6 BEAS-2B IC50.
Setting [5] is: BEAS-2B cells, IL-13 stimulation, read-out: IL-13 p-STAT6 BEAS-2B IC50.

In general, Ki refers to a measure of affinity in units of concentration, obtained from inhibition or displacement. What is called IC50 is the concentration that gives 50% inhibition. With `COC(=O)Nc1nn(C2(CC#N)CCN(Cc3ccc(-c4ccccc4)c(O)c3)CC2F)cc1C(N)=O` (centres unmarked) [Example 195, methyl N-[4-carbamoyl-1-[4-(cyanomethyl)-3-fluoro-1-[(3-hydroxy-4-phenyl-phenyl)methyl]-4-piperidyl]pyrazol-3-yl]carbamate], the Ki came out at 0.11 nM in assay [1] (read-out: JAK1 Ki) and 0.15 nM in assay [2]. Also, the IC50 in assay [3] (setting [4]) was 15 nM.

For `COC(=O)Nc1nn(C2(CC#N)CCN(Cc3cnc(-c4ccccc4)cc3F)CC2F)cc1C(N)=O` (centres unmarked) [Example 251, methyl N-[4-carbamoyl-1-[4-(cyanomethyl)-3-fluoro-1-[(4-fluoro-6-phenyl-3-pyridyl)methyl]-4-piperidyl]pyrazol-3-yl]carbamate], the Ki was 0.34 nM in assay [1] (read-out: JAK1 Ki) and 0.3 nM in assay [2]. For the same compound, in assay [3] (setting [4]), the IC50 was found to be 30 nM.

With `N#CCC1(n2cc(C(N)=O)c(NC(=O)C3CC3)n2)CCN(Cc2ccc(-c3ccccc3)nc2)CC1F` (centres unmarked) [Example 193, 1-[4-(cyanomethyl)-3-fluoro-1-[(6-phenyl-3-pyridyl)methyl]-4-piperidyl]-3-(cyclopropanecarbonylamino) pyrazole-4-carboxamide], the results for the Ki in assay [1] (read-out: JAK1 Ki) and in assay [2] were 0.33 nM and 0.26 nM, respectively. Moreover, the IC50 in assay [3] (setting [4]) was found to be 48 nM.

Turning to `N#CCC1(n2cc(C(N)=O)c(NC(=O)C3CC3)n2)CCN(Cc2ccc(-c3ccccn3)cc2)CC1` [Example 185, 1-[4-(cyanomethyl)-1-[[4-(2-pyridyl)phenyl]methyl]-4-piperidyl]-3-(cyclopropanecarbonylamino) pyrazole-4-carboxamide], the Ki in assay [1] (read-out: JAK1 Ki) stood at 2.3 nM. Moreover, in assay [3] (setting [4]), the IC50 amounted to 209 nM.

For the compound `N#CCC1(n2cc(C(N)=O)c(NC(=O)C3CC3)n2)CCN(Cc2ccc(-c3ccccc3)cc2O)CC1` [Example 204, 1-[4-(cyanomethyl)-1-[(2-hydroxy-4-phenyl-phenyl)methyl]-4-piperidyl]-3-(cyclopropanecarbonylamino) pyrazole-4-carboxamide], the Ki in assay [1] (read-out: JAK1 Ki) was 1 nM; in assay [2], 1.8 nM. Besides, the IC50 in assay [3] (setting [4]) is 50 nM.

For `COC(=O)Nc1nn(C2(CC#N)CCN(Cc3ccc(-c4ccoc4)nc3F)CC2F)cc1C(N)=O` (centres unmarked) [Example 239, methyl N-[4-carbamoyl-1-[4-(cyanomethyl)-3-fluoro-1-[[2-fluoro-6-(3-furyl)-3-pyridyl]methyl]-4-piperidyl]pyrazol-3-yl]carbamate], the Ki in assay [1] (read-out: JAK1 Ki) was 0.51 nM; in assay [2], 0.89 nM. Also, the IC50 in assay [3] (setting [4]) worked out at 67 nM.

For `CC(OC(=O)N1CCC(CC#N)(n2cc(C(N)=O)c(NC(=O)C3CC3)n2)CC1)C1CC1` (centres unmarked) [Example 182, 1-cyclopropylethyl 4-[4-carbamoyl-3-(cyclopropanecarbonylamino)pyrazol-1-yl]-4-(cyanomethyl)piperidine-1-carboxylate], the Ki in assay [1] (read-out: JAK1 Ki) is 4.7 nM; in assay [2] it was 50.7 nM. The IC50 in assay [3] (setting [4]) stood at 675 nM.

Regarding `COc1cc(CN2CCC(CC#N)(n3cc(C(N)=O)c(NC(=O)C4CC4)n3)CC2)ccc1-c1ccccc1` [Example 162, 1-[4-(cyanomethyl)-1-[(3-methoxy-4-phenyl-phenyl)methyl]-4-piperidyl]-3-(cyclopropanecarbonylamino) pyrazole-4-carboxamide], the Ki in assay [1] (read-out: JAK1 Ki) stood at 3.1 nM; in assay [2], 10.6 nM. Moreover, the IC50 in assay [3] (setting [4]) came to 293 nM.

Turning to `N#CCC1(n2cc(C(N)=O)c(NC(=O)C3CC3)n2)CCN(Cc2ccc(-n3nccn3)c(O)c2)CC1F` (centres unmarked) [Example 286, 1-[4-(cyanomethyl)-3-fluoro-1-[[3-hydroxy-4-(triazol-2-yl)phenyl]methyl]-4-piperidyl]-3-(cyclopropanecarbonylamino) pyrazole-4-carboxamide], the figures for the Ki in assay [1] (read-out: JAK1 Ki) and in assay [2] were 0.43 nM and 0.4 nM, respectively. Besides, the IC50 in assay [3] (setting [4]) worked out at 52 nM.

For the compound `Cc1c(CN2CCC(CC#N)(n3cc(C(N)=O)c(NC(=O)C4CC4C#N)n3)C(F)C2)ccc(-c2ccccc2)c1O` (centres unmarked) [Example 250, 3-[(2-cyanocyclopropanecarbonyl)amino]-1-[4-(cyanomethyl)-3-fluoro-1-[(3-hydroxy-2-methyl-4-phenyl-phenyl)methyl]-4-piperidyl]pyrazole-4-carboxamide; formic acid], the Ki is 0.31 nM in assay [1] (read-out: JAK1 Ki) and 0.84 nM in assay [2]. For the same compound, in assay [3] (setting [4]), the IC50 turned out to be 80 nM.

`CCC1(n2cc(C(N)=O)c(Nc3ccc(S(=O)(=O)C(F)F)cc3)n2)CCN(C(=O)CC#N)CC1` [Example 304]: the Ki came out at 0.49 nM in assay [1] (read-out: JAK1 Ki) and 2.8 nM in assay [2]. Also, in assay [3] (setting [4]), the IC50 is 220 nM.

In the case of `N#CC[C@]1(n2cc(C(N)=O)c(NC(=O)C3CC3)n2)CC[C@@H](N2CC(F)(F)C2)CC1` [Example 178, 1-[1-(cyanomethyl)-4-(3,3-difluoroazetidin-1-yl)cyclohexyl]-3-(cyclopropanecarbonylamino) pyrazole-4-carboxamide], the values for the Ki in assay [1] and in assay [2] were 4.7 nM and 18.4 nM, respectively. The IC50 in assay [3] (Homo sapiens, BEAS-2B, read-out: IL-13 p-STAT6 BEAS-2B IC50, BEAS-2B cells, IL-13 stimulation) amounted to 167 nM.

With `N#CCC1(n2cc(C(N)=O)c(NC(=O)C3CC3C#N)n2)CCN(CC2CCC(c3ccccc3)CC2)CC1F` (centres unmarked) [Example 228, 3-[(2-cyanocyclopropanecarbonyl)amino]-1-[4-(cyanomethyl)-3-fluoro-1-[(4-phenylcyclohexyl)methyl]-4-piperidyl]pyrazole-4-carboxamide], the results for the Ki in assay [1] (read-out: JAK1 Ki) and in assay [2] were 1.5 nM and 7.7 nM, respectively. The IC50 in assay [3] (setting [5]) was 77 nM.

On to `N#CCC1(n2cc(C(N)=O)c(NC(=O)C3CC3)n2)CCC(Oc2ccc(-c3ccccc3)cc2)CC1` (single isomer, unassigned) [Example 211, 1-(4-([1,1′-Biphenyl]-4-yloxy)-1-(cyanomethyl)cyclohexyl)-3-(cyclopropanecarboxamido)-1H-pyrazole-4-carboxamide], for which the Ki in assay [1] (read-out: JAK1 Ki) came to 0.74 nM; in assay [2], 4.6 nM. The IC50 in assay [3] (setting [5]) came out at 26 nM.

With `COC(=O)Nc1nn(C2(CC#N)CCN(Cc3ccc(-c4ccc(C)o4)cc3)CC2F)cc1C(N)=O` (centres unmarked) [Example 246, methyl N-[4-carbamoyl-1-[4-(cyanomethyl)-3-fluoro-1-[[4-(5-methyl-2-furyl)phenyl]methyl]-4-piperidyl]pyrazol-3-yl]carbamate], the Ki was found to be 0.35 nM in assay [1] (read-out: JAK1 Ki) and 0.52 nM in assay [2]. For the same compound, in assay [3] (setting [4]), the IC50 was determined as 19 nM.

`N#CCC1(n2cc(C(N)=O)c(NC(=O)C3CC3)n2)CCN(Cc2ccc(F)cc2)CC1` [Example 57]: the Ki stood at 3.9 nM in assay [1] (read-out: JAK1 Ki) and 49 nM in assay [2]. For the same compound, in assay [3] (setting [4]), the IC50 is 128 nM.

Consider `COCc1cccc(-c2ccc(CN3CCC(CC#N)(n4cc(C(N)=O)c(NC(=O)C5CC5)n4)CC3)cc2)c1` [Example 157, 1-[4-(cyanomethyl)-1-[[4-[3-(methoxymethyl)phenyl]phenyl]methyl]-4-piperidyl]-3-(cyclopropanecarbonylamino) pyrazole-4-carboxamide], for which the Ki in assay [1] (read-out: JAK1 Ki) was found to be 1.6 nM; in assay [2], 13.7 nM. Moreover, the IC50 in assay [3] (setting [4]) came to 104 nM.

Consider `CCOC(=O)Nc1nn(C2(CC#N)CCN(Cc3ccc(-n4nccn4)cc3)CC2F)cc1C(N)=O` (centres unmarked) [Example 225, ethyl N-[4-carbamoyl-1-[4-(cyanomethyl)-3-fluoro-1-[[4-(triazol-2-yl)phenyl]methyl]-4-piperidyl]pyrazol-3-yl]carbamate], for which the Ki in assay [1] (read-out: JAK1 Ki) came to 0.62 nM; in assay [2], 1.3 nM. Besides, in assay [3] (setting [4]), the IC50 is 44 nM.
